According to US20240317683A1, “METHODS OF TREATING MOOD DISORDERS” (priority 2020, published 2024):
“Also recorded” adds a separate entry of the source. Where a name gives a salt, the structure may show the parent alone.

What was measured:
[1] = tested on: C57BL/6 mice; assay: Head twitch response (HTR) in mice; format: in vivo; settings: for Average HTR: 20 mins; for maximal effect in HTR: SC, maximal over tested doses
Protocol: Animals. Adult male C57BL/6 mice, aged 8 weeks (body weight 20-25 g) were used in these experiments. Animals were housed under controlled temperatures and 12-hour light/dark cycles (lights on between 07:00-19:00 h), with ad libitum food and water. The protocol was approved by the Eurofins Advinus Institutional Animal Care and Use Committee. This study was carried out in strict accordance with the recommendations in the Guide for the Care and Use of Laboratory Animals of the National Institutes of Health. All efforts were made to minimize suffering.
Drugs and Drug administration. Compounds 3 and 4 were prepared as described above. All other compounds were commercially obtained. Test compounds were used as the hydrogen fumarate (1 and 2) or hydrochloride (DOI, 3, and 4) salts. Drugs were dissolved in a vehicle consisting of normal saline and administered subcutaneously (SC) in a volume of 10 ml/kg. Test compounds were administered at 5 doses per compound (0.1 to 100 mg/kg, as indicated, calculated based on the free base) using N=6 animals/group. […] For blockade experiments, MDL100907 (0.1 mg/kg, SC) was administered 10 mins prior to the test compound.
Procedure. Mice were administered one dose of a test drug (or vehicle) s.c. and immediately placed into a small open field for behavioral observation. Animals were observed continuously for 20 mins and the number of HTRs were counted by an observer blind to the treatment condition.
Statistical analysis. The data points shown in Table 11 are the mean ±standard error of the mean (SEM). Analysis was performed using GraphPad Prism 9.

[2] = tested on: rat synaptosomes; assay: Synaptosome 5-HT release assay; format: biochemical, Sprague-Dawley rats; settings: for EC50: [3H]5-HT
Protocol: Synaptosome 5-HT Release Assay. Synaptosome release assays were conducted according to modifications of previously described procedures (Partilla et al. (2016). Interrogating the Activity of Ligands at Monoamine Transporters in Rat Brain Synaptosomes. In Neurotransmitter Transporters (pp. 41-52). Springer.). Briefly, synaptosomes were prepared from rat brains. Male Sprague-Dawley rats were rendered unconscious with CO2 and their brains were immediately removed. The cerebella were discarded and the whole brains (minus striatum) were placed in ice-cold 0.32 M sucrose (10 mL per brain) and gently homogenized by hand. The homogenate of each brain was centrifuged at 1,000× g at 4° C. for 10 mins and the resulting supernatant was diluted with ice-cold 0.32 M sucrose to a total volume of 10 mL to provide the synaptosome solution. Synaptosomes were then preloaded with 5 nM [^3H] 5-HT in the presence of selective uptake inhibitors of DAT (50 nM GBR12935), NET (100 nM nomifensine), and VMAT2 (1 μM reserpine) in Krebs phosphate buffer (KPB). The incubations were allowed to reach equilibrium for 2 h at 25° C. For the release reactions, 425 μL of preloaded synaptosomes were added to test tubes containing 75 μL of test drugs diluted in KPB containing 1 mg/mL BSA. After 10 mins, the release reaction was stopped using a cell harvester by rapid vacuum filtration over GF/B filter paper presoaked in wash buffer (10 mM Tris-HCl, pH 7.4, 150 mM NaCl) and the filters were washed with additional wash buffer. Filters were dried for 1 h at 60° C. and retained radioactivity was quantified using a MicroBeta 2 liquid scintillation counter. The amount of retained radioactivity was inversely proportional to the extent of release.

[3] = tested on: C57BL/6 mice; assay: Conditioned place preference in mice; format: in vivo; settings: SC, abuse liability model, vs. vehicle; hydrochloride
Protocol: (§1) Animals. Male C57BL/6 mice, 5-8 weeks of age, (body weight 25-30 g; Envigo, Indianapolis, IN, USA) were housed 5 per polycarbonate tub with soft bedding in a temperature-and humidity-controlled vivarium. Mice were maintained under a 12-h light/dark cycle with lights on at 06:00. Food and water were available ad libitum. Animals acclimated to the vivarium for 1 week prior to experimental manipulations.
Drugs and Drug Administration. Compound 4 was prepared as described above. All other compounds were commercially obtained. Compound 4 and saline vehicle were administered subcutaneously (SC), with doses calculated based on the HCl salt, while the positive control oxycodone was administered intraperitoneally (IP), with the dose calculated based on the HCl salt. […]
Conditioned Place Preference. Reward and/or aversion was assessed in conditioned place preference chambers (Model MED-CPP-3013; Med Associates, St. Albans, VT). […]
Group size was n=10 per treatment. […] Final drug preference was assessed in a 15-minute post-conditioning trial and was calculated by subtracting the time in the drug-paired compartment at baseline from the time in the drug-paired compartment post-conditioning, with positive values reflecting reward and negative values reflecting aversion.
For all trials, time spent in chambers as well as movement was quantified by infrared photobeam detectors and calculated by Med-PC IV software. […]

[4] = tested on: C57BL/6 mice; assay: Open field locomotor activity in mice; format: in vivo; settings: SC
Protocol: as §1
Drugs and Drug Administration. Compound 4 was prepared as described above. Compound 4 and saline vehicle were administered subcutaneously (SC), with doses calculated based on the HCl salt. Normal saline was used as the vehicle. All compounds were administered at a volume of 10 mL/kg. Compound 4 or vehicle were administered immediately before the start of the recording session.
Locomotor Activity. Locomotor activity was measured in experimental cages (length×width x height: 560×560×330 mm) by an animal movement analysis system SCANET MV-40 ([…] Co., Ltd., Toyama, Japan). The cumulative activity was recorded for 30 minutes prior to drug administration to establish a baseline, and then animals were recorded for 60 minutes immediately after drug administration. Cages were cleaned between testing sessions.
Statistical Analysis. The total number of beam breaks were summed into 5-minute time bins. The data points shown are the mean ±standard error of the mean (SEM). […]

SMILES	Average HTR ([1]; 1 mg/kg SC)	Average HTR ([1]; 10 mg/kg SC)	Average HTR ([1]; 100 mg/kg SC)	maximal effect in HTR [1]	% Release @ Max Dose (10 μM) [2]	EC50 [2]	Average HTR ([1]; 0.1 mg/kg SC)	total number of HTR counts vs. vehicle (FIG. 2) ([1]; Cmp 4 alone, Dunnett's test, P<0.0001)	preference for the drug-paired compartment [3]	total locomotor activity in the open field ([4]; 60 minutes after administration)	locomotor activity, highest dose group ([4]; highest dose group)
CCN(C)CCc1c[nH]c2ccccc12 [Compound 2, methylethyltryptamine]	3.667	2.500	0.500	6.00 head twitches/20 min	71%	183 nM					
CN(C)CCc1c[nH]c2ccccc12 [DMT, N,N-dimethyltryptamine, reference compound]					80.77%	80.8 nM					
CCCN(CC)CCc1c[nH]c2ccccc12 [Compound 1, ethylpropyltryptamine]	14.667	8.000	4.500	14.7 head twitches/20 min							
CCCN(CC)CCc1c[nH]c2ccc(F)cc12 [Compound 3, N-ethyl-N-(2-(5-fluoro-1H-indol-3-yl)ethyl) propan-1-amine hydrochloride]	29.333	26.333		29.33 head twitches/20 min			12.5				
CCN(C)CCc1c[nH]c2ccc(F)cc12 [Compound 4, N-ethyl-2-(5-fluoro-1H-indol-3-yl)-N-methylethan-1-amine hydrochloride]	18.333	9.333		27.67 head twitches/20 min	71.36%	8.43 nM	5.00	significantly different from vehicle	did not induce any significant preference; also recorded: not significantly different from vehicle	dose-dependent decrease	near complete reduction in activity
